Data set [1] is described as follows: Phase 1 clinical study, tolerability. In kind it is in vivo. To be noted: most common adverse events fatigue, diarrhea, anorexia, rash, palmar-plantar erythrodysesthesia.
Data set [2] has as its system xenograft tumor models. As to the kind of experiment: Xenograft tumor models. In kind it is in vivo.
Data set [3] concerns endothelial cells and tumor cells. As to the kind of experiment: Apoptosis of endothelial cells and tumor cells. In kind it is cell-based.
Data set [4] concerns pancreatic neuroendocrine tumor. As to the kind of experiment: Murine pancreatic neuroendocrine tumor model. The class given is in vivo.
Data set [5] relates to melanoma, including ocular melanoma. The data set is described as follows: Phase 2 randomized discontinuation trial in adults with melanoma (NCT00940225). In kind it is in vivo, human. The procedure:
Compound 1 was used in a Phase 2 randomized discontinuation trial study of adults with melanoma, including ocular melanoma (See NCT00940225, Abstract 371). Compound 1 was administered at a daily dose of 100 mg (125 mg salt equivalent). The study endpoints included objective response rate (ORR) per mRECIST in the lead-in stage, and progression-free survival in the randomized stage. The eligibility criteria included: (a) pathologically and radiologically confirmed diagnosis of advanced melanoma; (b) cutaneous, mucosal, or ocular subtypes; (c) up to two lines of prior systemic treatment (not including immunotherapy); (d) documented progressive disease and measurable target lesion(s) per mRECIST; and (e) no known brain metastases. Tumors were assessed by CT/MRI at baseline and every 6 weeks thereafter. Archival tumor tissue was retained for genotyping and biomarker analysis.

For the compound `COc1cc2nccc(Oc3ccc(NC(=O)C4(C(=O)Nc5ccc(F)cc5)CC4)cc3)c2cc1OC` [Compound 1, N-(4-{[6,7-bis(methyloxy)quinolin-4-yl]oxy}phenyl)-N′-(4-fluorophenyl)cyclopropane-1,1-dicarboxamide], the Tolerability entry in data set [1] was “generally well-tolerated”. In data set [2], the Effect on tumor result is “causes tumor regression”. The Induction of apoptosis entry in data set [3] is reported as “rapidly induces apoptosis”. In data set [4], the Overall survival result is listed as “substantially improves overall survival”; the “Tumor invasiveness and metastasis” value is “significantly reduces tumor invasiveness and metastasis”. In data set [5] (all enrolled patients with melanoma, daily dose of 100 mg), the “Patients with objective tumor shrinkage” value is on record as “sixty”. In data set [5] (ocular melanoma Patients 5, 6, 14, 15, 18, 20, 22, 26, 28 and 29 (FIGS. 4A and 4B)), the Best response entry was “stable disease”. In addition, the “Patients with evidence of objective tumor regression” value in data set [5] (patients with ocular cancer, six months) was determined as 48%. Besides, the Disease control rate in data set [5] (patients with ocular cancer, week 12) is 14%. In addition, the “Patients showing a positive disease control rate” value in data set [5] (patients with ocular melanoma who were tested (FIG. 3)) is recorded as “Eight of the fourteen”. In addition, the Partial response observed entry in data set [5] (patients with ocular melanoma, week 6) is given as “One”.

Values taken from patent publication US11116759B2, “Method of treating cancer” (Exelixis, Inc., priority 2011, dated 2021).
